Measured values reported in US9833002B2, “Biocide compositions” (Ecolab USA Inc., priority 2013, dated 2017).

Columns and labels:
planktonic organisms = assay: Dynamic flow loop test, planktonic kill after 4 hour contact time; type: cell-based; settings: 112.5 ppm active THPS
Experimental: (§1) Evaluation of the biocide compositions disclosed herein was performed through a dynamic flow loop test where both planktonic and sessile organisms could be monitored. To start this testing, fluid from the field, as well as cultured organisms from the field, were placed into the system and allowed to grow for approximately 7 weeks, providing a mature biofilm that can then be challenged by the biocide treatment.
(§2) The test system holds approximately 1.5 liters of fluid that are continually circulated over 1018 carbon steel biostuds located in the 6 o'clock position of a modified Robbin's device. The device holds a maximum of eight biostuds in the 6 o'clock position. The production fluid was pumped through the system at a rate of approximately 3.1 gallons per minute, which allows for deposition of microorganisms and solids onto the biostuds. The health of the microbial population was monitored weekly during the biofilm growth period using ATP quantification.
(§3) After concluding the establishment of a mature biofilm, the sessile kill study was initiated. […] A baseline reading was taken, during all of the studies, prior to the addition of the chemical to the individual flow loop. […]
Planktonic kill in the dynamic flow loops was also evaluated immediately after a 4 hour contact time with the biocide.

[1] = tested on: biofilm (sessile organisms) on 1018 carbon steel biostuds; assay: Dynamic flow loop test, sessile kill study and biofilm regrowth; type: cell-based; settings: within 24 hours
Experimental: as §1, §2, §3
The initial data point before treatment is set to 100% and all other readings are reported as a percent change compared to the baseline. […]

“tetrakis(hydroxymethyl)phosphonium sulphate [THPS]” was tested, and the “Planktonic kill, % reduction” value (planktonic organisms) was 81.8% and the “Biofilm size after treatment compared to before treatment” value [1] was “larger than it was before treatment”.
